Read-outs that look alike come from different tables or passages of the source.
How the values were obtained:
[1] = target: receptors (Bioprint panel); experiment: biochemical; format: binding; details: read-out: Reference Compound IC50
[2] = system: human pancreatic carcinoma MIA PaCa-2; details: 80 mg/kg Q4D x 4 IP
TAF1(1) (h) bromodomain = target: T1, TAF1(1) (h) bromodomain (Homo sapiens, UniProt P21675); experiment: Epigenetic binding assay, Bromodomain; details: Table 4; read-out: Reference IC50
T1 construct: Bromodomain
T1 sequence (P21675 1397-1505 limits assumed): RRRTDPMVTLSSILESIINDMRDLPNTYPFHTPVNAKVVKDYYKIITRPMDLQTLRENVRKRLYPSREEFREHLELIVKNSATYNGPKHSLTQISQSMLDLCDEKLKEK

[3] = target: T2, KAT2A (GCN5L2) (h) bromodomain (Homo sapiens, UniProt Q92830); experiment: Epigenetic binding assay, Bromodomain; details: Table 9, inhibition/concentration-response curve; read-out: IC50
T2 construct: Bromodomain
T2 sequence (Q92830 728-832 limits assumed): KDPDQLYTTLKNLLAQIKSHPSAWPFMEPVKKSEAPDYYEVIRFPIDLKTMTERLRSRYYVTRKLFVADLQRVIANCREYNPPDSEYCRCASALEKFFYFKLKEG

TAF1(2)(h) bromodomain = target: T3, TAF1(2)(h) bromodomain (Homo sapiens, UniProt P21675); experiment: Epigenetic binding assay, Bromodomain; details: Table 4; read-out: Reference IC50
T3 construct: Bromodomain
T3 sequence (P21675 1519-1628 limits assumed): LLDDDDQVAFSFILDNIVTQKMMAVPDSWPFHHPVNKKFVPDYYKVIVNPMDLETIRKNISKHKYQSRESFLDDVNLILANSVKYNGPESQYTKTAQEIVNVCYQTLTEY

CCD 841 CoN = experiment: OncoPanel normal cell proliferation assay (3-day); format: cell-based; details: Homo sapiens, 72 h, colon epithelial, 3-day incubation; for EC50: read-out: Cell Count EC50; for GI50: read-out: Cell Count GI50; for IC50: read-out: Cell Count IC50
HMEC = experiment: OncoPanel normal cell proliferation assay (3-day); format: cell-based; details: Homo sapiens, 72 h, HMEC, mammary epithelial, 3-day incubation; for EC50: read-out: Cell Count EC50; for GI50: read-out: Cell Count GI50; for IC50: read-out: Cell Count IC50
Wi38 = experiment: OncoPanel normal cell proliferation assay (3-day); format: cell-based; details: Homo sapiens, WI-38, 72 h, Wi38, lung fibroblast, 3-day incubation; for EC50: read-out: Cell Count EC50; for GI50: read-out: Cell Count GI50; for IC50: read-out: Cell Count IC50
HREC = experiment: OncoPanel normal cell proliferation assay (3-day); format: cell-based; details: 72 h, renal mixed epithelial, 3-day incubation; for EC50: read-out: Cell Count EC50; for GI50: read-out: Cell Count GI50; for IC50: read-out: Cell Count IC50
FALZ (h) bromodomain = target: T4, FALZ (h) bromodomain (Homo sapiens, UniProt Q12830); experiment: Epigenetic binding assay, Bromodomain; details: Table 4; read-out: Reference IC50
T4 construct: Bromodomain; Eurofins CEREP (France), contract laboratory

BRPF1-1 (h) bromodomain = target: T5, BRPF1-1 (h) bromodomain (Homo sapiens, UniProt P55201); experiment: Epigenetic binding assay, Bromodomain; details: Table 4; read-out: Reference IC50
T5 construct: Bromodomain
T5 sequence (P55201 628-732 limits assumed): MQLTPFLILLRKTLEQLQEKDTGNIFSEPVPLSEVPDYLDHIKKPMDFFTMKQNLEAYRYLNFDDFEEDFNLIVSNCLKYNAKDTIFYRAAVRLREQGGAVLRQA

[4] = format: in vivo, female NOD/SCID mice; details: Study 1, IP, 35 mg/kg
Description: Two studies were conducted by Eurofins Panlabs Taiwan, Ltd. The purpose of Study 1 was to assess the possible adverse effects of Compound 1 alone or in combination with […] in Maximum Tolerated Dose (MTD) assay. The purpose of Study 2 is a follow-up study performed at escalating doses.
Compound 1 was dissolved in 10% Tween 20/90% PBS or 20% Tween 20/80% PBS for IP injections. Compound 1 was administrated alone or in combination with […] at a dosing volume of 10 or 20 mL/kg for each substance.
For mortality, test substance (Compound 1; 100 mg/kg) alone or in combination with […] (8.75, 17.5, or 35 mg/kg; given on the same day) was administered to mice by IP injection to evaluate the possible adverse effects in MTD assay. […]. […]
A follow-up MTD study was performed to evaluate for the adverse effects of the test substance (Compound 1) at escalating doses alone or in combination with […] (17.5 mg/kg) via IP in a group of 3 female NOD/SCID mice at 6-7 weeks of age.
For mortality, treatment with Compound 1 at escalating doses (200 mg/kg) alone and in combination with […] (17.5 mg/kg; given on the same day) were administered by IP injection to a group of 3 female NOD/SCID mice at 6-7 weeks of age. The mortality was monitored at 30 min and again at 3, 24, 48 and 72 hours after compound administrations.
For body weight, test substance (Compound 1) at escalating doses (200 mg/kg) alone or in combination with […] (17.5 mg/kg; given on the same day) were administered by IP injection to a group of 3 female NOD/SCID mice at 6-7 weeks of age. The body weight of each animal was measured and recorded daily for 3 days.
For behavioral, symptomatic i.e. neurological and autonomic signs, test substance (Compound 1; 200 mg/kg) alone or in combination with […] (17.5 mg/kg; given on the same day) were administered by IP injection to a group of 3 female NOD/SCID mice at 6-7 weeks of age. The animals were then observed for presences of acute toxic symptoms and autonomic effects for 30 min after the first dose.

ATAD2A (h) bromodomain = target: T6, ATAD2A (h) bromodomain (Homo sapiens, UniProt Q6PL18); experiment: Epigenetic binding assay, Bromodomain; details: Table 9, inhibition/concentration-response curve; read-out: IC50
T6 construct: Bromodomain
T6 sequence (Q6PL18 980-1092 limits assumed): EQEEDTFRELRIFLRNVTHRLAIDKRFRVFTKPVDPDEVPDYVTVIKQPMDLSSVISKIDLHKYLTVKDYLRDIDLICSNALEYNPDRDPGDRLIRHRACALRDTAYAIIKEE

SP140 (h) bromodomain = target: T7, SP140 (h) bromodomain (Homo sapiens, UniProt Q13342); experiment: Epigenetic binding assay, Bromodomain
T7 construct: SP140 (h) bromodomain

PHIP(2) (h) bromodomain = target: T8, PHIP(2) (h) bromodomain (Homo sapiens, UniProt Q8WWQ0); experiment: Epigenetic binding assay, Bromodomain; details: Table 4; read-out: Reference IC50
T8 construct: Bromodomain

T7 sequence (Q13342 754-857 limits assumed): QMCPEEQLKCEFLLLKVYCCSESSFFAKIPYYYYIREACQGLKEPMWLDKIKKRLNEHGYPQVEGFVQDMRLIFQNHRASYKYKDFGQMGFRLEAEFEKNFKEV

CCCCC[C@H](O)/C=C/[C@@H]1[C@@H](C/C=C\CCCC(=O)O)[C@@H](O)C[C@H]1O [PGF2alpha]
IC50 ([1]; […] (h) (agonist radioligand)): 3 nM

Nc1ccn([C@@H]2O[C@H](CO)[C@@H](O)C2(F)F)c(=O)n1 [Gemcitabine, reference compound]
% T/C ([2]; Day 1): 99%
% TGI ([2]; Day 1): 1%
Tumor Volume, Mean ([2]; Day 1): 89 mm3
% T/C ([2]; Day 4): 100%
% TGI ([2]; Day 4): 0%
Tumor Volume, Mean ([2]; Day 4): 94 mm3
% T/C ([2]; Day 8): 81%
% TGI ([2]; Day 8): 19%
Tumor Volume, Mean ([2]; Day 8): 107 mm3
% T/C ([2]; Day 11): 70%
% TGI ([2]; Day 11): 30%
Tumor Volume, Mean ([2]; Day 11): 139 mm3
% T/C ([2]; Day 15): 55%
% TGI ([2]; Day 15): 45%
Tumor Volume, Mean ([2]; Day 15): 207 mm3

omega -conotoxin GVIA
IC50 [1]: 0.0017 nM

CCCOc1ccn2c(C(C)=O)cc(-c3ccccc3S(C)(=O)=O)c2c1 [GSK2801, reference compound]
IC50 (TAF1(1) (h) bromodomain): 4400 nM
IC50 [3]: 10000 nM
IC50 (TAF1(2)(h) bromodomain): 10000 nM

N[C@@H](CCC(=O)O)C(=O)O [L-glutamate]
IC50 ([1]; GLUTAMATE CHANNELS AMPA (agonist radioligand)): 370 nM

N#CC(C#N)=NNc1cccc(Cl)c1 [Carbonyl cyanide 3-chlorophenylhydrazone]
EC50 (CCD 841 CoN): 10000 nM
GI50 (CCD 841 CoN): 6210 nM
IC50 (CCD 841 CoN): 10000 nM
EC50 (HMEC): > 10000 nM
GI50 (HMEC): 175 nM
IC50 (HMEC): > 10000 nM
EC50 (Wi38): 8840 nM
GI50 (Wi38): 6150 nM
IC50 (Wi38): 8840 nM
EC50 (HREC): 553 nM
GI50 (HREC): 308 nM
IC50 (HREC): 1520 nM

COc1ccc([C@@H]2Sc3ccccc3N(CCN(C)C)C(=O)[C@@H]2OC(C)=O)cc1 [diltiazem]
IC50 ([1]; Ca2+ channel (L, diltiazem site) (benzothiazepines) (antagonist radioligand)): 57 nM

C[C@H](NC[C@H](O)CP(=O)(O)CC1CCCCC1)c1ccc(Cl)c(Cl)c1 [CGP 54626]
IC50 ([1]; GABA GABAB(1b) (h) (antagonist radioligand)): 2.2 nM

glucagon
IC50 ([1]; glucagon (h) (agonist radioligand)): 1 nM

TNF-alpha
IC50 ([1]; CYTOKINES TNF-alpha (h) (agonist radioligand)): 0.16 nM

CCCCCCCCCCCCCCCCOC[C@H](COP(=O)([O-])OCC[N+](C)(C)C)OC(C)=O [Compound C16-PAF]
IC50 ([1]; PLATELET ACTIVATED FACTOR PAF (h) (agonist radioligand)): 3.4 nM

CN[C@@H]1C[C@H]2O[C@@](C)([C@@H]1OC)n1c3ccccc3c3c4c(c5c6ccccc6n2c5c31)C(=O)NC4 [Staurosporine]
GI50 (CCD 841 CoN): 0.19 nM
EC50 (HMEC): 2.29 nM
GI50 (HMEC): 0.91 nM
EC50 (Wi38): 0.49 nM
GI50 (Wi38): 0.33 nM
GI50 (HREC): 0.5 nM

alpha -bungarotoxin
IC50 [1]: 1.9 nM

C=C(C)[C@@H]1[C@H]2OC(=O)[C@@H]1[C@]1(O)C[C@H]3O[C@]34C(=O)O[C@H]2[C@]14C [picrotoxinin]
IC50 ([1]; Cl- channel (GABA-gated) (antagonist radioligand)): 330 nM

CCC(=O)N1CCOc2c(cc(-c3ccc(OC)c(OC)c3)cc2OC[C@H]2CCCN(C)C2)C1 [I-CBP112, reference compound]
IC50 (FALZ (h) bromodomain): 24500 nM

CCOC(=O)Nc1cc(-c2ccc(C)c(NS(C)(=O)=O)c2)nn2c(C)nnc12 [Bromosporine, reference compound]
IC50 (BRPF1-1 (h) bromodomain): 26 nM

NPY
IC50 ([1]; NE[…] Y1 (h) (agonist radioligand)): 0.16 nM

C=C(C)[C@H]1CN[C@H](C(=O)O)[C@H]1CC(=O)O [kainic acid]
IC50 [1]: 23 nM

carboplatin [reference compound]
Response (death/test) ([4]; 30 min): 0/3
Response (death/test) ([4]; 3 hrs): 0/3
Response (death/test) ([4]; Day 1): 0/3
Response (death/test) ([4]; Day 2): 0/3
Response (death/test) ([4]; Day 3): 0/3

C[C@]12N[C@H](Cc3ccccc31)c1ccccc12 [MK 801]
IC50 ([1]; GLUTAMATE CHANNELS PCP (antagonist radioligand)): 9.6 nM

Cc1cc(/N=N/c2cc(S(=O)(=O)O)c(C)cc2C)c(N)cc1O [Ischemin, reference compound]
IC50 (ATAD2A (h) bromodomain): 5200 nM
IC50 (SP140 (h) bromodomain; Table 4, read-out: Reference IC50): 86000 nM
IC50 (SP140 (h) bromodomain; Table 9, inhibition/concentration-response curve, read-out: IC50): 11000 nM

[Nleu13]-motilin (FVPIFTYGELQRLQEKERNKGQ; Motilin norleucine at 13; UniProt P12872 26-47, looked up, variant M13L)
IC50 ([1]; motilin(h) (agonist radioligand)): 0.89 nM

CN1C(=O)CN=C(c2ccccc2)c2cc(Cl)ccc21 [diazepam]
IC50 [1]: 9.4 nM

C[C@@H]1C[C@@H]([C@H](O)CC2CC(=O)NC(=O)C2)C(=O)[C@@H](C)C1 [cycloheximide, reference compound]
EC50 (CCD 841 CoN): 505 nM
GI50 (CCD 841 CoN): 588 nM
IC50 (CCD 841 CoN): 2770 nM
EC50 (HMEC): 3650 nM
GI50 (HMEC): 306 nM
IC50 (HMEC): 10000 nM
EC50 (Wi38): 285 nM
GI50 (Wi38): 369 nM
IC50 (Wi38): 871 nM
EC50 (HREC): 117 nM
GI50 (HREC): 36.9 nM
IC50 (HREC): 593 nM

COc1ccc(CCc2nc3cc(-c4c(C)noc4C)ccc3n2C[C@H](C)N2CCOCC2)cc1Cl [SGC-CBP30, reference compound]
IC50 (PHIP(2) (h) bromodomain): 130 nM

— US11331299B2, “Medicinal use of serrulatane diterpenes” (The University of Sydney, priority 2016, dated 2022)
